Reference: ChEMBL document CHEMBL3856191, “Structural modifications at the 6-position of thieno[2,3-d]pyrimidines and their effects on potency at FLT3 for treatment of acute myeloid leukemia” (Eur J Med Chem, 2016)

How the values were obtained:
[1] = molecular target: T1, Receptor-type tyrosine-protein kinase FLT3 (Homo sapiens, UniProt P36888); assay: biochemical; type: cell-based, Sf21
T1 sequence (P36888 whole entry): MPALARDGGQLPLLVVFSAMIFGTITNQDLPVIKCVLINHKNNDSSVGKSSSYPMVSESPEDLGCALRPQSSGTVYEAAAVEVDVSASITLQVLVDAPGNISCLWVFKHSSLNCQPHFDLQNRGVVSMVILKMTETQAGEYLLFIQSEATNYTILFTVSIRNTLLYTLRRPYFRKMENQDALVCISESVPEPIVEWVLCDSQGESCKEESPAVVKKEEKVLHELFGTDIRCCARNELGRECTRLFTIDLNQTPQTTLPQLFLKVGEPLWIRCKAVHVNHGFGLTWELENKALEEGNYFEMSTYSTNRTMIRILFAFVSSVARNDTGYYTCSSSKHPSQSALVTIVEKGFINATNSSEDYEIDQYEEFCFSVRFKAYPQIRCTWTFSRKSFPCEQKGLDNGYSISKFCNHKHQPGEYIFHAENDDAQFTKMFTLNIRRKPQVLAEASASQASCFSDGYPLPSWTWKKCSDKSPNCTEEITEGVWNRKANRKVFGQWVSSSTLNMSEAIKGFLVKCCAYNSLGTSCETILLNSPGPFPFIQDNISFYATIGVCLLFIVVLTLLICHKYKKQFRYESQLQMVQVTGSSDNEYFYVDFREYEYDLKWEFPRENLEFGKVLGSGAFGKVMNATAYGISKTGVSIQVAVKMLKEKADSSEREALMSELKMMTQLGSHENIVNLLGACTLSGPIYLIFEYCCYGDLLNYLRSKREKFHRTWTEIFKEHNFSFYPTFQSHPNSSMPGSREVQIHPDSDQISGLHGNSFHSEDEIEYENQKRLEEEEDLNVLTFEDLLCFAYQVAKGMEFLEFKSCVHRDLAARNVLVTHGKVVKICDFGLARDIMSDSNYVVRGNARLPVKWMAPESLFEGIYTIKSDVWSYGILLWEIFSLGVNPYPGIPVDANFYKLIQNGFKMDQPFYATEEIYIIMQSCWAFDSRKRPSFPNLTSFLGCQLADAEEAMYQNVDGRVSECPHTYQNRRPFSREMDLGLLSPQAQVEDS
Description: Inhibition of recombinant human FLT3 expressed in insect Sf21 cells preincubated for 15 mins followed by poly(Glu:Tyr) substrate addition for 30 mins in presence of [gamma-32P]ATP by TR-FRET assay

[2] = molecular target: Proto-oncogene tyrosine-protein kinase receptor Ret (Homo sapiens) (UniProt P07949); assay: Inhibition of recombinant human RET expressed in insect Sf21 cells assessed as remaining activity at 10 uM preincubated for 15 mins followed by poly(Glu:Tyr) substrate addition for 30 mins in presence of [gamma-32P]ATP by […] assay
Chain of Proto-oncogene tyrosine-protein kinase receptor Ret (Homo sapiens) (P07949 whole entry): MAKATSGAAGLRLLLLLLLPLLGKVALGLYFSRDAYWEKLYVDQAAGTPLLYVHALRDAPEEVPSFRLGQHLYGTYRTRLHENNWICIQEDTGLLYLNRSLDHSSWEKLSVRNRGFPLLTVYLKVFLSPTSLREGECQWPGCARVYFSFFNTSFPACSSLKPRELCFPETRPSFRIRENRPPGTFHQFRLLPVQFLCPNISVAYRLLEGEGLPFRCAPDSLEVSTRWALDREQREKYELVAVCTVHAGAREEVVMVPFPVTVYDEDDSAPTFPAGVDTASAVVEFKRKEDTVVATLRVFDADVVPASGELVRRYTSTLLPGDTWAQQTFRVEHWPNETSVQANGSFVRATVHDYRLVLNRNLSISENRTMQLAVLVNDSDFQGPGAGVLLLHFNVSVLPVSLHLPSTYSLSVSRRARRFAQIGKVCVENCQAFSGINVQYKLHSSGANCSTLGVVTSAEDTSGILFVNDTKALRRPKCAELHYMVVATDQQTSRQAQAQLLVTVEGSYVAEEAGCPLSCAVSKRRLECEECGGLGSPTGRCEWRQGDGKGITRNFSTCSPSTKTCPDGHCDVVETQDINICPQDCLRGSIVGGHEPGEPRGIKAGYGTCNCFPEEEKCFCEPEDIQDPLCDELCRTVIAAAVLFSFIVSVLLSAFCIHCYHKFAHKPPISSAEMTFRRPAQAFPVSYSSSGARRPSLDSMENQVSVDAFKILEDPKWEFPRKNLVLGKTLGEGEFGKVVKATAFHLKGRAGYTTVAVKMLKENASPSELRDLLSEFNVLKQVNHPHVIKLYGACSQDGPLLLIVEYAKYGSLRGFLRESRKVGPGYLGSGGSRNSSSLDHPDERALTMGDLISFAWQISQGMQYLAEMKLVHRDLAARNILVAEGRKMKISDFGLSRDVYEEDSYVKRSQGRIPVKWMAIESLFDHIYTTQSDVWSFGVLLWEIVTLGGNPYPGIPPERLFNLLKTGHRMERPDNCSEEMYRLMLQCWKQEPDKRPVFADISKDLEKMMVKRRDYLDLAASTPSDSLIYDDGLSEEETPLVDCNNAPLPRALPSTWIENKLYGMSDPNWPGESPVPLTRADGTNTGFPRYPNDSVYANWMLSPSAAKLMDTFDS

Structure (SMILES): CNCCOc1ccc(-c2sc3nc(-c4cccs4)nc(NN4C(=O)C=C(C)C4=O)c3c2C)cc1.Cl
- IC50 [1]: 8.03 nM
- Activity [2]: 42%
